Measured values taken from ChEMBL document CHEMBL4483862, “Open-source discovery of chemical leads for next-generation chemoprotective antimalarials” (2018).

Test system: Plasmodium berghei
Assay: Luciferase/luciferin-expressing antifolate-resistant parasites were used to infect a culture of HepG2 cells that were pre-incubated with compounds. Infected hepatocytes emit light due to the luciferase reaction. Assay results are presented as the percent inhibition of light emission compared to control. […]
Format: functional
Conditions: sporozoite; for IC90: read-out: LUCIFERASE INFECTION ASSAY - IC90
[1] = read-out: LUCIFERASE INFECTION ASSAY - IC50

Row | Compound | IC90 [µM] | IC50 [1] [µM] | further results
1 | Cc1ccnc(NC(c2cccc(C)n2)c2ccc3cccnc3c2O)c1 (stereo unspecified) | > 9.26 |  | IC50 (FFLUC_HILL_SLOPE 20.2, FFLUC_R_SQUARED 0.523, HEPG2TOX_HILL_SLOPE 12.4, HEPG2TOX_R_SQUARED 0.193, PBLUC_HILL_SLOPE 13.3, PBLUC_R_SQUARED 0.0907, read-out: LUCIFERASE INFECTION ASSAY - IC50): 7.89 µM
2 | CCC1(c2ccc(F)cc2)NC(=O)N(CC(=O)Nc2ccc(-c3nc4ccc(C)cc4s3)cc2)C1=O (stereo unspecified) | > 10 | 9.87 | 
3 | COC(=O)c1c(-c2c(Cl)cccc2Cl)noc1CC=Nc1ccc(C(=O)O)cc1 | > 7.62 |  | IC50 (HEPG2TOX_HILL_SLOPE 0.693, HEPG2TOX_R_SQUARED 0.602, read-out: LUCIFERASE INFECTION ASSAY - IC50): > 7.62 µM
4 | CCN(CC)c1ccc(NC(=O)c2c(F)cccc2F)c(N(CC)CC)n1 | > 8.77 |  | IC50 (PBLUC_HILL_SLOPE 1.91, PBLUC_R_SQUARED 0.469, read-out: LUCIFERASE INFECTION ASSAY - IC50): 5.46 µM
5 | c1ccc(-c2cc3c(SCc4cscn4)ncnc3s2)cc1 | 3.71 |  | IC50 (PBLUC_HILL_SLOPE 12.2, PBLUC_R_SQUARED 0.61, read-out: LUCIFERASE INFECTION ASSAY - IC50): 3.1 µM
6 | Cc1ccc(C)c(Sc2ccc(S(=O)(=O)NCCN(C)C)cc2)c1 | > 10 | > 10 | 
7 | O=C(Nc1ccccc1)c1ccc(C#Cc2ccccc2)o1 | > 11.5 | > 11.5 | 
8 | N#C/C(=N\Nc1ccc(OC(F)(F)F)cc1)C(=O)c1ccsc1 | 6.42 |  | IC50 (HEPG2TOX_HILL_SLOPE 1.43, HEPG2TOX_R_SQUARED 0.957, PBLUC_HILL_SLOPE 2.41, PBLUC_R_SQUARED 0.455, read-out: LUCIFERASE INFECTION ASSAY - IC50): 2.58 µM
9 | CCCNc1nc(-c2ccccc2)c(C(=O)OCC)cc1C#N | 3.12 |  | IC50 (HEPG2TOX_HILL_SLOPE 1.25, HEPG2TOX_R_SQUARED 0.958, PBLUC_HILL_SLOPE 3.81, PBLUC_R_SQUARED 0.673, read-out: LUCIFERASE INFECTION ASSAY - IC50): 1.75 µM
10 | COc1cc(-c2cncc(Nc3cccc(C(F)(F)F)c3)n2)cc(OC)c1OC | > 8.14 | 4.6 | 
11 | O=C(Nc1cccc(-n2cnnn2)c1)c1ccc(-c2ccccc2Cl)o1 | > 9.02 |  | IC50 (HEPG2TOX_HILL_SLOPE 8.29, HEPG2TOX_R_SQUARED 0.71, PBLUC_HILL_SLOPE 14.4, PBLUC_R_SQUARED 0.296, read-out: LUCIFERASE INFECTION ASSAY - IC50): 8.92 µM
12 | COc1ccc(OCc2nc(-c3ccc4c(c3)C(C)(C)CCC4(C)C)cs2)cc1 | > 8.1 | > 8.1 | 
13 | c1ccc(CCNc2nccc3nc(-c4ccccc4)[nH]c23)cc1 | 4.09 |  | IC50 (HEPG2TOX_HILL_SLOPE 7.38, HEPG2TOX_R_SQUARED 0.753, PBLUC_HILL_SLOPE 1.8, PBLUC_R_SQUARED 0.435, read-out: LUCIFERASE INFECTION ASSAY - IC50): 1.21 µM
14 | COC(=O)c1cnc(Sc2n[nH]c(=O)n2C2CCCCC2)c([N+](=O)[O-])c1 | > 8.7 | > 8.7 | 
15 | Cc1ccc(CNCc2nc(NCc3ccc(C)cc3)c3c(C)c(C)sc3n2)cc1 | 4.22 |  | IC50 (FFLUC_HILL_SLOPE 14.5, FFLUC_R_SQUARED 0.473, HEPG2TOX_HILL_SLOPE 357, HEPG2TOX_R_SQUARED 0.506, PBLUC_HILL_SLOPE 12.5, PBLUC_R_SQUARED 0.0149, read-out: LUCIFERASE INFECTION ASSAY - IC50): 3.54 µM
16 | COc1ccc(S(=O)(=O)OCCSc2ccc([N+](=O)[O-])c3nonc23)cc1 | > 8.02 |  | IC50 (FFLUC_HILL_SLOPE 1.23, FFLUC_R_SQUARED 0.562, read-out: LUCIFERASE INFECTION ASSAY - IC50): > 8.02 µM
17 | COc1ccc(C2=NN=C/C2=N\Nc2ccccc2)cc1 | 3.89 |  | IC50 (HEPG2TOX_HILL_SLOPE 2.19, HEPG2TOX_R_SQUARED 0.971, PBLUC_HILL_SLOPE 2.49, PBLUC_R_SQUARED 0.567, read-out: LUCIFERASE INFECTION ASSAY - IC50): 1.61 µM
18 | CCCn1c(-c2ccccc2)nc2c(c(=O)c3ccccc3n2C)c1=O | 3.93 | 3.2 | 
19 | CC1CCCC(C)N1CC(O)COC1CCC(C(C)(C)C)CC1 (stereo unspecified) | 3.62 |  | IC50 (HEPG2TOX_HILL_SLOPE 11.8, HEPG2TOX_R_SQUARED 0.0956, PBLUC_HILL_SLOPE 13.2, PBLUC_R_SQUARED 0.651, read-out: LUCIFERASE INFECTION ASSAY - IC50): 3.06 µM
20 | CC(CN1CCC2(CC1)C(=O)N(Cc1ccccn1)C(=O)N2Cc1ccccc1)c1ccccc1 (stereo unspecified) | > 7.04 |  | IC50 (PBLUC_HILL_SLOPE 2.23, PBLUC_R_SQUARED 0.302, read-out: LUCIFERASE INFECTION ASSAY - IC50): > 7.04 µM
21 | Cc1n[nH]c(C(=O)NCc2ccc(OC(C)C)cc2)c1Br | > 10 |  | IC50 (PBLUC_HILL_SLOPE 12.5, PBLUC_R_SQUARED 0.288, read-out: LUCIFERASE INFECTION ASSAY - IC50): 8.82 µM
22 | COC(=O)c1ccccc1N(C)S(=O)(=O)c1ccc(Cl)cc1F | > 10 | > 10 | 

Row | Compound | IC90 [µM] | IC50 [1] [µM] | further results
23 | CCCNc1nc(-c2ccc(OC)cc2)c(-c2ccc(OC)cc2)s1 | > 10 |  | IC50 (PBLUC_HILL_SLOPE 15.7, PBLUC_R_SQUARED 0.0413, read-out: LUCIFERASE INFECTION ASSAY - IC50): 9.99 µM
24 | FC(F)(F)c1cc(Nc2ncnc3sc(-c4ccccc4)cc23)ccc1Cl | > 10 |  | IC50 (FFLUC_HILL_SLOPE 9.86, FFLUC_R_SQUARED 0.42, HEPG2TOX_HILL_SLOPE 7.8, HEPG2TOX_R_SQUARED 0.241, read-out: LUCIFERASE INFECTION ASSAY - IC50): > 10 µM
25 | O=c1c(Cl)c(Cl)cnn1CCOc1cccc(Br)c1 | > 10 | > 10 | 
26 | CC(OC(=O)c1ccc(C(C)C)cc1)C(=O)Nc1sccc1C(N)=O (stereo unspecified) | > 10 | > 10 | 
27 | CCCNc1ccc2ncc(-c3ccc(OC)c(OC)c3)n2n1 | 2.73 |  | IC50 (HEPG2TOX_HILL_SLOPE 2.36, HEPG2TOX_R_SQUARED 0.919, PBLUC_HILL_SLOPE 2.02, PBLUC_R_SQUARED 0.782, read-out: LUCIFERASE INFECTION ASSAY - IC50): 0.918 µM
28 | COc1ccc(C(CNC(=O)c2ccc(Oc3ccc(Cl)cc3[N+](=O)[O-])cc2)N2CCCC2)cc1 (stereo unspecified) | > 10 |  | IC50 (PBLUC_HILL_SLOPE 1.72, PBLUC_R_SQUARED 0.19, read-out: LUCIFERASE INFECTION ASSAY - IC50): 6.08 µM
29 | COc1ccccc1N1C(C)=CC(=C(C#N)c2nc3ccccc3s2)C=C1C | > 10 |  | IC50 (FFLUC_HILL_SLOPE 10.1, FFLUC_R_SQUARED 0.663, HEPG2TOX_HILL_SLOPE 9.46, HEPG2TOX_R_SQUARED 0.504, PBLUC_HILL_SLOPE 1.94, PBLUC_R_SQUARED 0.582, read-out: LUCIFERASE INFECTION ASSAY - IC50): 3.83 µM
30 | Cc1cc(C)c2c(c1)C(=O)/C(=C/c1ccc(N(C)CCC#N)cc1)CC2 | > 10 | > 10 | 
31 | CC(C)(C)c1ccc(-c2nnc(SCc3ccc([N+](=O)[O-])cc3)n2-c2cccc(C(F)(F)F)c2)cc1 | > 6.44 |  | IC50 (FFLUC_HILL_SLOPE 12, FFLUC_R_SQUARED 0.571, HEPG2TOX_HILL_SLOPE 0.228, HEPG2TOX_R_SQUARED 0.238, read-out: LUCIFERASE INFECTION ASSAY - IC50): > 6.44 µM
32 | Cc1sc2nc3c4ccccc4c(NCc4ccccc4CN4CCOCC4)nn3c(=O)c2c1C | > 10 |  | IC50 (HEPG2TOX_HILL_SLOPE 7.8, HEPG2TOX_R_SQUARED 0.205, PBLUC_HILL_SLOPE 3, PBLUC_R_SQUARED 0.458, read-out: LUCIFERASE INFECTION ASSAY - IC50): 5.95 µM
33 | Cc1nc2c(C)cccn2c1C(=O)NN1C(=O)CSC1c1ccccc1 (stereo unspecified) | > 8 | 7.23 | 
34 | COc1ccc(CCNc2nc(C)nc3sc(-c4ccccc4)cc23)cc1OC | > 10 |  | IC50 (HEPG2TOX_HILL_SLOPE 6.76, HEPG2TOX_R_SQUARED 0.162, read-out: LUCIFERASE INFECTION ASSAY - IC50): > 10 µM
35 | CNc1snc(C)c1C(=O)OCCCOC(=O)c1c(C)nsc1NC | 6.67 |  | IC50 (PBLUC_HILL_SLOPE 109, PBLUC_R_SQUARED 0.523, read-out: LUCIFERASE INFECTION ASSAY - IC50): 6.54 µM
36 | COc1cccc(C(=O)CC2C(=O)Nc3ccccc32)c1 (stereo unspecified) | 11.4 |  | IC50 (HEPG2TOX_HILL_SLOPE 18.2, HEPG2TOX_R_SQUARED 0.892, PBLUC_HILL_SLOPE 11.5, PBLUC_R_SQUARED 0.65, read-out: LUCIFERASE INFECTION ASSAY - IC50): 9.38 µM
37 | NC(c1csc(NC(=O)Nc2ccccc2-c2ccccc2)n1)C1CCCCC1 (stereo unspecified) | > 8.12 |  | IC50 (PBLUC_HILL_SLOPE 15.5, PBLUC_R_SQUARED 0.0255, read-out: LUCIFERASE INFECTION ASSAY - IC50): 7.57 µM
38 | FC(F)(F)c1ccc2nc(SCc3c(Cl)cccc3Cl)[nH]c2c1 | > 7.98 | > 7.98 | 
39 | Cc1ccc(-c2cc(C(=O)Nc3nnc(C(C)C)s3)[nH]n2)c(O)c1C | > 9.23 | > 9.23 | 
40 | CCOc1cc2c(cc1/C=C/C(=O)c1ccc3[nH]c(=O)[nH]c3c1)OC(C)C2 (stereo unspecified) | > 10 | > 10 | 
41 | O=C(Nc1ccc(Oc2ccc(C(F)(F)F)cn2)c(Cl)c1)C1CC1 | 4.36 |  | IC50 (PBLUC_HILL_SLOPE 2.75, PBLUC_R_SQUARED 0.594, read-out: LUCIFERASE INFECTION ASSAY - IC50): 1.96 µM
42 | CN(C)CCNC(=O)c1ccc(-c2cn3c(-c4ccc(Oc5ccccc5)cc4)cnc3cn2)cc1 | > 6.91 | 5.8 | 
43 | COc1ccc(CCN(C)CC(O)COc2ccc(C(C)(C)CC(C)(C)C)cc2)cc1OC (stereo unspecified) | > 10 |  | IC50 (PBLUC_HILL_SLOPE 3.04, PBLUC_R_SQUARED 0.101, read-out: LUCIFERASE INFECTION ASSAY - IC50): 9.63 µM
